Results on nine compounds are retold here after patent US6133258A, “Inhibitor of kainic acid neurotoxicity and pyridothiazine derivative” (Yamanouchi Pharmaceutical Co., Ltd., priority 1995, dated 2000).

Each structure is given as a SMILES string.

Experiment [1] deals with NMDA excitotoxicity or experimental animal models for epilepsy, cerebral ischemia. The following applies: literature; cited from earlier work.
Experiment [2] deals with primary rat hippocampal cultures. Nature of the experiment: Inhibition of kainic acid neurotoxicity (LDH release) in primary rat hippocampal cultures. In kind it is cell-based. The following applies: Hippocampal neuron; 300 μM kainic acid, 24 hours, primary rat hippocampal neurons, lactate dehydrogenase release. On the procedure:
1) Inhibition of kainic acid neurotoxicity
The effect of the compound of the present invention for inhibiting kainic acid neurotoxicity was studied using primary rat hippocampal cultures.
(1) Incubation conditions
The hippocampus was dissected from a brain of the 18 to 20-day-old fetal rat and was subjected to enzyme treatment with papain and DNase I to disperse the cells. The cells so obtained were suspended in MEM containing 10% serum and plated on poly-L-lysine coated 48-well plates at a density of 4×10^5 cells/cm^2. Twenty four hours later, the medium was replaced by a serum-free medium. The medium was changed twice a week. The cells which were cultured for at least 6 days were provided for the following test.
(2) Inhibition against kainic acid neurotoxicity
Neurotoxicity was assessed by an activity of lactate dehydrogenase released into the culture medium from destroyed cells. As a control, neurons which were exposed to a serum-free medium containing 300 μM kainic acid for 24 hours were used. Each compound, together with 300 μM kainic acid, was allowed to act on the neuron for 24 hours and inhibitory action of each compound against kainic acid neurotoxicity was evaluated.

The next experiment deals with DBA/2 mice. Kind of experiment: Audiogenic seizure inhibitory action (anticonvulsant effect) in DBA/2 mice. In kind it is in vivo. The following applies: Mus musculus, ip, 0.75 h; i.p. 45 minutes before sound stimulation (12 kHz, 120 dB); ten male 21 to 28-day-old mice; read-out: Anticonvulsant effect for audiogenic seizure in DBA/2 mice, minimum effective dose. On the procedure: 2) Measurement of audiogenic seizure inhibitory action in DBA/2 mice
The test compound was suspended in a 0.5% methylcellulose solution and the resulting suspension was intraperitoneally administered 45 minutes before the stimulation by the sound. The drug efficacy was evaluated by presence or absence of the appearance of seizure and the minimum effective dose was determined.

In experiment [3] the test system is experimental animal model for cerebral ischemia. The settings on record: literature; cited from earlier work.
The next experiment relates to AMPA receptor. The settings on record: literature; cited from earlier work.
A further experiment has as its system AMPA-induced cell death. The following applies: literature; cited from earlier work.

With `NC(CCCP(=O)(O)O)C(=O)O` (centres unmarked) [2-amino-5-phosphonovaleric acid], the “protective effect against NMDA excitotoxicity or in experimental animal models for epilepsy, cerebral ischemia, etc.” value in experiment [1] is reported as “protective against NMDA excitotoxicity or in experimental animal models for epilepsy, cerebral ischemia, etc”.
Consider `NC(CCCCCP(=O)(O)O)C(=O)O` (centres unmarked) [2-amino-7-phosphonoheptanoic acid], for which the “protective effect against NMDA excitotoxicity or in experimental animal models for epilepsy, cerebral ischemia, etc.” value in experiment [1] is “protective against NMDA excitotoxicity or in experimental animal models for epilepsy, cerebral ischemia, etc”.
In experiment [2], `CN(c1ccc(Br)cc1)c1nc(=O)c2cccnc2s1` [16-2), 2-[N-(4-Bromophenyl)-N-methylamino]-4H-pyrido[3,2-e]-1,3-thiazin-4-one] gave an IC50 of 1000 nM. Moreover, the minimal effective dose with DBA/2 mice stood at 30 mg/kg.
For `CN(c1ccc(Cl)cc1)c1nc(=O)c2cccnc2s1` [Example 64, 2-[N-(4-Chlorophenyl)-N-methylamino]-4H pyrido[3,2-e]-1,3-thiazin-4-one] the same measures were 1400 nM and 10 mg/kg.
For `Cc1cccc(N(C)c2nc(=O)c3cccnc3s2)c1` [Example 72, 2-[N-Methyl-N-(3-methylphenyl)amino]-4H-pyrido[3,2-e]-1,3-thiazin-4-one] the same measures were 1900 nM and 30 mg/kg.
`CC1=NN=C(c2ccc(N)cc2)c2cc3c(cc2C1)OCO3` [GYKI52466]: the “effect in experimental animal model for cerebral ischemia” value (shortened to “effect in experimental animal model”) in experiment [3] is “effective in an experimental animal model for cerebral ischemia”. The “effect on AMPA receptor desensitization” value in the experiment with AMPA receptor is on record as “counteracts the inhibition of desensitization by cyclothiazide”.
With `NC1CCN(O)C1=O` (centres unmarked) [HA-966], the “effect in experimental animal model” value in experiment [3] is given as “effective in an experimental animal model for cerebral ischemia”.
`NS(=O)(=O)c1cccc2c1c([N+](=O)[O-])cc1[nH]c(=O)c(=O)[nH]c12` [NBQX]: the “effect in experimental animal model” value in experiment [3] is listed as “effective in the experimental animal model for cerebral ischemia”.
As for `NS(=O)(=O)c1cc2c(cc1Cl)NC(C1CC3C=CC1C3)NS2(=O)=O` (centres unmarked) [cyclothiazide], the “effect on AMPA-induced cell death” value in the experiment on AMPA-induced cell death is “accelerate AMPA-induced cell death”. In addition, the “effect on AMPA receptor desensitization” value in the experiment on AMPA receptor is listed as “desensitization inhibitor”.

In general, IC50 refers to the midpoint of a concentration-inhibition curve. Lower therefore signals greater potency.
